Laboratory results taken from ChEMBL document CHEMBL5058564, “EUbOPEN Chemogenomics Library 2 (Incucyte)” (2022).

Legend:
Assay type in all cases: toxicity, cell-based
HEK-293T = test: Incucyte cell viability with HEK293T; settings: human, 10 µM, compound concentration 10 uM
Fibroblast = test: Incucyte cell viability with human fibroblast; settings: 10 µM, compound concentration 10 uM
U2OS = test: Incucyte cell viability with U2OS; settings: human, 10 µM, compound concentration 10 uM
[1] = 6 h, replicate number 1, timepoint 6 hours
[2] = 6 h, replicate number 2, timepoint 6 hours
[3] = 12 h, replicate number 1, timepoint 12 hours
[4] = 18 h, replicate number 2, timepoint 18 hours
[5] = 24 h, replicate number 1, timepoint 24 hours
[6] = 0 h, replicate number 1, timepoint 0 hours
[7] = 0 h, replicate number 2, timepoint 0 hours
[8] = 12 h, replicate number 2, timepoint 12 hours
[9] = 24 h, replicate number 2, timepoint 24 hours
[10] = 18 h, replicate number 1, timepoint 18 hours
Note: unitless GR value; below 1 slowed growth and below 0 cell loss.

SMILES | Growth Rate (HEK-293T; [2]) | Growth Rate (HEK-293T; [3]) | Growth Rate (HEK-293T; [4]) | Growth Rate (Fibroblast; [6]) | Growth Rate (Fibroblast; [7]) | Growth Rate (Fibroblast; [2]) | Growth Rate (Fibroblast; [3]) | Growth Rate (Fibroblast; [8]) | Growth Rate (Fibroblast; [4]) | Growth Rate (Fibroblast; [9]) | Growth Rate (U2OS; [7]) | Growth Rate (U2OS; [1]) | Growth Rate (HEK-293T; [6]) | Growth Rate (HEK-293T; [7]) | Growth Rate (Fibroblast; [1]) | Growth Rate (Fibroblast; [10]) | Growth Rate (Fibroblast; [5]) | Growth Rate (U2OS; [6]) | Growth Rate (U2OS; [10]) | Growth Rate (U2OS; [4]) | further results
NC(N)=Nc1nc(CSCCC(N)=NS(N)(=O)=O)cs1 [FAMOTIDINE] | 0.45 | 0.65 | 0.89 | 0.55 | 0.42 | 0.22 | 0.41 | 0.17 | 0.4 | 0.89 | -1 | 0.18 |  |  |  |  |  |  |  |  | Growth Rate (HEK-293T; [1]): 0.72; Growth Rate (HEK-293T; [5]): 0.96
Cc1ccc(-c2ccc(F)cc2COc2ccc(CCC(=O)O)cc2)cc1 |  |  |  |  | 0.45 |  | 0.58 |  |  |  | -0.59 |  | 0.43 | 0.55 | 0.23 | 0.18 | 0.42 | -0.34 |  |  | 
Cc1ccc(C(C)(O)c2nc3ccccc3s2)c(C)c1 (stereo unspecified) |  | 0.99 |  | 0.44 | 0.92 |  |  |  |  |  |  |  | 0.98 | 0.84 | 0.67 |  |  | -0.06 | 0.99 | 0.95 | Growth Rate (U2OS; [2]): 0.88
O=c1c2cccn2c2ccccc2n1CCCN1CCC(c2ccc(Cl)cc2)CC1 | 0.34 | 0.61 | 0.55 |  |  | -0.88 | -0.52 | -0.58 | -0.28 | -0.26 | -1 |  |  |  | -0.55 | -0.55 | -0.3 |  |  | 0.89 | Growth Rate (HEK-293T; [8]): 0.39; Growth Rate (HEK-293T; [10]): 0.56; Growth Rate (HEK-293T; [5]): 0.76; Growth Rate (HEK-293T; [9]): 0.9; Growth Rate (U2OS; [8]): 0.89; Growth Rate (U2OS; [9]): 0.8
CCCN(CCC)CCc1cccc2c1CC(=O)N2.Cl [ROPINIROLE HYDROCHLORIDE] |  |  |  | 0.73 | -0.1 |  | 0.31 |  |  |  |  | 0.57 | 0.6 | 0.1 |  | 0.67 | 0.64 | 0.4 | 0.76 |  | Growth Rate (HEK-293T; [1]): 0.94; Growth Rate (U2OS; [3]): 0.77
O=C(O)C(F)(F)F.O=C1NC(=O)/C(=C/c2c[nH]c(=O)c(-c3ccc(N4CCNCC4)nc3)c2)S1 | 0.18 |  | 0.92 | 0.44 |  | 0.04 |  | 0.66 | 0.64 | 0.71 | -1 | 0.45 | 0.87 | 0.65 |  |  |  | -0.39 | 1 |  | Growth Rate (HEK-293T; [8]): 0.7; Growth Rate (U2OS; [3]): 0.51; Growth Rate (U2OS; [9]): 0.94
CCCCCCNC(=O)Nc1ccc(S(=O)(=O)Nc2ccc(CCNC[C@H](O)COc3ccc(O)cc3)cc2)cc1 [L-755507] | 0.53 |  |  | 0.5 | 0.79 | -0.46 |  | 0.47 |  |  |  | 0.25 | 0.4 |  | 0.91 |  |  |  | 0.87 | 0.79 | Growth Rate (HEK-293T; [8]): 0.94; Growth Rate (U2OS; [2]): 0.75; Growth Rate (U2OS; [3]): 0.32; Growth Rate (U2OS; [8]): 0.7; Growth Rate (U2OS; [5]): 0.87; Growth Rate (U2OS; [9]): 0.89
